Data published in publication PMC8068288, “Novel Thiol Containing Hybrid Antioxidant-Nitric Oxide Donor Small Molecules for Treatment of Glaucoma” (Antioxidants, 2021).

Tests used:
[1] = system: NTM-5 cells; test: In vitro peroxynitrite measurement assay; format: cell-based, human; conditions: 0.1 µM and 1 mM, with or without TBHP 350 µM
Experimental: Human transformed trabecular meshwork (NTM-5) cells (20,000 cells/well/90 µL) were seeded in 96-well plates (Griener bio-one black plate) and stained with 10 µL of 10X Peroxynitrite Sensor Green solution for 1 h. […] SIN-1 was used as a positive control. Detection of peroxynitrite was done using Peroxynitrite Assay Kit (abcam-ab233468-cell based). Fluorescence signals were measured using a microplate reader (Cytation5) at Ex/Em = 485/530 nm at time intervals (15 min, 30 min, 1 h, 2 h, and 3 h). The experiments were done in duplicates.

[2] = system: NTM-5 cells; test: Superoxide scavenging ratio in NTM-5 cell supernatant (pyrogallol assay), with or without TBHP; format: cell-based, human; conditions: for AUC0-3h of superoxide scavenging ratio: NTM-5 cell supernatant, 18 h treatment, 0.1-1000 µM
Experimental: The ROS scavenging ratio was determined using a chemical assay where WST-1 was used as superoxide scavenger produced by pyrogallol following a reported protocol. Briefly, the superoxide anion radical scavenging activity was determined spectrophotometrically by measuring the formation of WST-1 formazan at 450 nm. WST-1 (40 µL, 50 µM) was added to the compounds (or corresponding solution) in a final volume of 160 µL in 50 mM ammonium hydrogen carbonate buffer, 0.5 mM EDTA, pH 9.3. Reaction was launched by adding 40 µL 1 mM pyrogallol. The operation was based on the 96-well microplate, and measurement was performed at different time points under 37 °C by Cytation5 Microplate Reader. Baicalein (1 mM) was used as positive control. Compounds SA-2, SA-9, and SA-10 were used in concentrations ranging from 1 µM, 10 µM, 100 µM, and 1000 µM. The superoxide anion radical scavenging ratio % was calculated according to the following formula:Scavenging ratio (%) = A0 − (A1 − A2)/A0 × 100% […]
The experiments were repeated twice with four technical replicates.
Figure 2 Superoxide scavenging ability of SA compounds in buffer and cells. (a) The % of superoxide scavenging response from 1 mM concentration of SA-2, SA-9, and SA-10 in pyrogallol (Pyr, 1 mM) induced superoxide induction assay at different time points in buffer. The AUC0–2.5 h for SA-2, SA-9, and SA-10 were 1592 ± 37.87, 1355 ± 42.62, and 2350 ± 69.26, respectively. (b) Comparison of the % ROS scavenging activity of SA-2, SA-9, and SA-10 with control after 15 min of treatment of pyrogallol. (c) The superoxide scavenging ratio (%) after 18 h treatment of 10 µM concentration of SA-2, SA-9, and SA-10 to NTM-5 cell supernatant using pyrogallol induced superoxide induction assay at different time points. (d) The superoxide scavenging ratio (%) of 10 µM concentration of SA-2, SA-9, and SA-10 in NTM-5 cell supernatant. The cells were previously treated with 5.5 mM of TBHP for 30 min followed by SA compounds and incubated for 18 h. Control is untreated cells. Three technical replicates were used for each experiment and all experiments were repeated 2 times. * p < 0.05, ** p < 0.005, *** p < 0.001, **** p < 0.0001, One-way ANOVA for (b), and two-way ANOVA for (c,d).
Figure S1: Superoxide scavenging ability of SA compounds in buffer and cells. a) The % of superoxide scavenging response from different concentrations of SA-2, SA-9 and SA-10 in pyrogallol (1 µM, 10 µM, 100 µM and 1,000 µM) induced superoxide induction assay at 15 minutes time point in buffer solution. The […]
superoxide scavenging ratio (%) after 18h treatment of different concentrations (0.1 µM, 1 µM, 10 µM, 100 µM and 1,000 µM) of SA-2, SA-9 and SA-10 to NTM-5 cell supernatant with or without TBHP (5.5 mM) using pyrogallol induced superoxide induction assay at 3h time point. Control is untreated cells. The cells were previously treated with 5.5 mM of TBHP for 30 minutes followed by SA compounds and TBHP and incubated for 18h. Control is untreated cells. e) The AUC0-3h for SA-2, SA-9 and SA-10 were 18902 ± 2714, […]
for each experiment and all experiments were repeated 2 times. N = 3.
(1 picture or pasted object on this page, not shown here)

[3] = Total nitrite/NO release by Griess assay in buffer (aqueous stability); format: physicochemical; conditions: even after 3 days
Experimental: The total nitrite released from the compounds in buffer and in cell supernatant were measured by Griess assay as reported by us previously. In brief, compounds (SA-2, SA-9, and SA-10) in buffer at different concentrations (1 mM, 500 µM, 250 µM 125 µM, 62.5 µM, 31.25 µM, and 15.625 µM) or supernatant collected from Human transformed trabecular meshwork (NTM-5) cells were added to a 96-well plate. 1% Sulphanilamide in 5% phosphoric acid and 0.1% N-1-napthylethylenediamine dihydrochloride (NED) were added to experimental samples sequentially at room temperature and away from light. SIN-1 was used as reference standard. […]

SMILES: Cl.[NH-]c1c[n+](C2CCSCC2)no1 [SA-9, (3-(tetrahydro-2H-thiopyran-4-yl)-1,2,3-oxadiazol-3-ium-5-yl)amide hydrochloride]
- ONOO− radical formation [1]: significantly less amount of radicals
- superoxide scavenging ability (ratio) ([2]; 10 µM for 18 h, NTM-5 cells insulted with TBHP, TBHP alone 2.5%): 20–25%
- fold prevention of the decrease in superoxide scavenging ability vs TBHP alone ([2]; 10 µM for 18 h, TBHP-treated NTM-5 cells): ~ 10 fold
- AUC0-3h of superoxide scavenging ratio ([2]; with TBHP 5.5 mM): 14120 ± 2023
- AUC0-3h of superoxide scavenging ratio ([2]; without TBHP): 21155 ± 1099
- NO release in buffer [3]: did not observe any NO release
